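Grown in 96-well plates, cells were treated for 48 hours with each compound at five concentrations. Insufficient inhibition: endpoint recorded as highest concentration tested. The concentration for 50% growth inhibition is given as GI50. TGI is the concentration that stops growth completely.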
Assays:
Assay in all cases: NCI-60 cell line screen, 48 h
[1] = tested on: HOP-62 NSCLC
[2] = tested on: HT29 colon
[3] = tested on: U251 CNS
[4] = tested on: SF-539 CNS
[5] = tested on: NCI/ADR-RES ovarian
[6] = tested on: SK-MEL-5 melanoma
[7] = tested on: BT-549 breast
[8] = tested on: SK-OV-3 ovarian
[9] = tested on: 786-0 renal
[10] = tested on: ACHN renal
[11] = tested on: HS 578T breast
[12] = tested on: SK-MEL-28 melanoma
[13] = tested on: SF-295 CNS
[14] = tested on: UO-31 renal
[15] = tested on: KM12 colon
[16] = tested on: HCC-2998 colon
[17] = tested on: RXF 393 renal
[18] = tested on: OVCAR-8 ovarian
[19] = tested on: CCRF-CEM leukemia
[20] = tested on: HL-60(TB) leukemia
[21] = tested on: IGROV1 ovarian
[22] = tested on: LOX IMVI melanoma
[23] = tested on: MALME-3M melanoma
[24] = tested on: SW-620 colon
[25] = tested on: SN12C renal
[26] = tested on: SK-MEL-2 melanoma
[27] = tested on: K-562 leukemia
[28] = tested on: COLO 205 colon
[29] = tested on: HCT-15 colon
[30] = tested on: NCI-H226 lung
[31] = tested on: NCI-H522 lung
[32] = tested on: MDA-MB-435
[33] = tested on: SNB-75 CNS
[34] = tested on: MDA-MB-231 breast
[35] = tested on: A549 NSCLC
[36] = tested on: M14 melanoma
[37] = tested on: OVCAR-5 ovarian
[38] = tested on: T-47D breast
[39] = tested on: MOLT-4 leukemia
[40] = tested on: UACC-257 melanoma
[41] = tested on: HCT-116 colon
[42] = tested on: MCF7 breast
[43] = tested on: NCI-H460 lung
[44] = tested on: DU-145 prostate
[45] = tested on: SNB-19 CNS
[46] = tested on: CAKI-1 renal
[47] = tested on: OVCAR-4 ovarian
[48] = tested on: SF-268 CNS
[49] = tested on: OVCAR-3 ovarian
[50] = tested on: SR leukemia
[51] = tested on: TK-10 renal
[52] = tested on: RPMI-8226 leukemia
[53] = tested on: A498 renal

Compound: O=C(NC(=S)NNC(=S)NNc1ccccc1)c1ccccc1
- GI50 [1]: 4.7 µM
- TGI [1]: > 100 µM
- GI50 [2]: 15.1 µM
- TGI [2]: > 100 µM
- GI50 [3]: 8.36 µM
- TGI [3]: > 100 µM
- GI50 [4]: 3.94 µM
- TGI [4]: 44.1 µM
- GI50 [5]: 5.26 µM
- TGI [5]: > 100 µM
- GI50 [6]: 3.73 µM
- TGI [6]: > 100 µM
- GI50 [7]: 11.3 µM
- TGI [7]: > 100 µM
- GI50 [8]: 44.2 µM
- TGI [8]: > 100 µM
- GI50 [9]: 24.8 µM
- TGI [9]: > 100 µM
- GI50 [10]: 10.1 µM
- TGI [10]: > 100 µM
- GI50 [11]: 1550 nM
- TGI [11]: > 100 µM
- GI50 [12]: 10.6 µM
- TGI [12]: > 100 µM
- GI50 [13]: 4.19 µM
- TGI [13]: > 100 µM
- GI50 [14]: 4.69 µM
- TGI [14]: > 100 µM
- GI50 [15]: 7.09 µM
- TGI [15]: > 100 µM
- GI50 [16]: 8.53 µM
- TGI [16]: > 100 µM
- GI50 [17]: 29 µM
- TGI [17]: > 100 µM
- GI50 [18]: 4.68 µM
- TGI [18]: > 100 µM
- GI50 [19]: 5.33 µM
- TGI [19]: > 100 µM
- GI50 [20]: 3.27 µM
- TGI [20]: 8.52 µM
- GI50 [21]: 4.8 µM
- TGI [21]: > 100 µM
- GI50 [22]: 7.22 µM
- TGI [22]: > 100 µM
- GI50 [23]: 24.2 µM
- TGI [23]: > 100 µM
- GI50 [24]: 4.09 µM
- TGI [24]: > 100 µM
- GI50 [25]: 4.87 µM
- TGI [25]: > 100 µM
- GI50 [26]: 4.11 µM
- TGI [26]: > 100 µM
- GI50 [27]: 1130 nM
- TGI [27]: > 100 µM
- GI50 [28]: 9.81 µM
- TGI [28]: > 100 µM
- GI50 [29]: 5.21 µM
- TGI [29]: > 100 µM
- GI50 [30]: 4.62 µM
- TGI [30]: > 100 µM
- GI50 [31]: 489 nM
- TGI [31]: 3.42 µM
- GI50 [32]: 3.47 µM
- TGI [32]: > 100 µM
- GI50 [33]: 3.09 µM
- TGI [33]: > 100 µM
- GI50 [34]: 12.9 µM
- TGI [34]: > 100 µM
- GI50 [35]: 8.58 µM
- TGI [35]: > 100 µM
- GI50 [36]: 7.45 µM
- TGI [36]: 55.6 µM
- GI50 [37]: > 100 µM
- TGI [37]: > 100 µM
- GI50 [38]: 3.24 µM
- TGI [38]: > 100 µM
- GI50 [39]: 4.81 µM
- TGI [39]: 49.9 µM
- GI50 [40]: 4.68 µM
- TGI [40]: > 100 µM
- GI50 [41]: 4.05 µM
- TGI [41]: > 100 µM
- GI50 [42]: 2920 nM
- TGI [42]: > 100 µM
- GI50 [43]: 3.72 µM
- TGI [43]: > 100 µM
- GI50 [44]: 44.1 µM
- TGI [44]: > 100 µM
- GI50 [45]: 13 µM
- TGI [45]: > 100 µM
- GI50 [46]: 4.75 µM
- TGI [46]: > 100 µM
- GI50 [47]: 11 µM
- TGI [47]: > 100 µM
- GI50 [48]: 8.55 µM
- TGI [48]: > 100 µM
- GI50 [49]: 18.2 µM
- TGI [49]: > 100 µM
- GI50 [50]: 3.7 µM
- TGI [50]: > 100 µM
- GI50 [51]: 35.4 µM
- TGI [51]: > 100 µM
- GI50 [52]: 3.55 µM
- TGI [52]: > 100 µM
- GI50 [53]: 37.5 µM
- TGI [53]: > 100 µM
